In ChEMBL document CHEMBL3616410, “Linked pyridinyl-thiadiazoles: Design and synthesis as potential candidate for treatment of XDR and MDR tuberculosis” (Eur J Med Chem, 2015) one finds MIC data, which are given here for one compound.

Format in all cases: functional
In experiment [1] the test system is Mycobacterium tuberculosis. Put plainly: Antimycobacterial activity against multi-drug resistant Mycobacterium tuberculosis TN1811 after 5 days by spectrophotometry. The following applies: TN1811, 120 h.
The test system of experiment [2] is Mycobacterium tuberculosis. Put plainly: Antimycobacterial activity against multi-drug resistant Mycobacterium tuberculosis TN2557 after 5 days by spectrophotometry. The following applies: TN2557, 120 h.
For experiment [3], the system named is Mycobacterium tuberculosis. Put plainly: Antimycobacterial activity against multi-drug resistant Mycobacterium tuberculosis TN565 after 5 days by spectrophotometry. To be noted: TN565, 120 h.
The test system of experiment [4] is Mycobacterium tuberculosis. As to the kind of experiment: Antimycobacterial activity against multi-drug resistant Mycobacterium tuberculosis TN576 after 5 days by spectrophotometry. The following applies: TN576, 120 h.
For experiment [5], the system named is Mycobacterium tuberculosis. As to the kind of experiment: Antimycobacterial activity against multi-drug resistant Mycobacterium tuberculosis TN702 after 5 days by spectrophotometry. The following applies: TN702, 120 h.
Experiment [6] has as its system Mycobacterium tuberculosis. As to the kind of experiment: Antimycobacterial activity against multi-drug resistant Mycobacterium tuberculosis TN715 after 5 days by spectrophotometry. The following applies: TN715, 120 h.
Experiment [7] relates to Mycobacterium tuberculosis. Put plainly: Antimycobacterial activity against multi-drug resistant Mycobacterium tuberculosis TN768 after 5 days by spectrophotometry. The following applies: TN768, 120 h.
Experiment [8] has as its system Mycobacterium tuberculosis. Put plainly: Antimycobacterial activity against multi-drug resistant Mycobacterium tuberculosis TN772 after 5 days by spectrophotometry. The following applies: TN772, 120 h.
Experiment [9] deals with Mycobacterium tuberculosis. Put plainly: Antimycobacterial activity against multi-drug resistant Mycobacterium tuberculosis TN1195 after 5 days by spectrophotometry. The following applies: TN1195, 120 h.
The subject of experiment [10] is Mycobacterium tuberculosis. As to the kind of experiment: Antimycobacterial activity against multi-drug resistant Mycobacterium tuberculosis TN1314 after 5 days by spectrophotometry. The following applies: TN1314, 120 h.
In experiment [11] the test system is Mycobacterium tuberculosis. As to the kind of experiment: Antimycobacterial activity against multi-drug resistant Mycobacterium tuberculosis TN1618 after 5 days by spectrophotometry. To be noted: TN1618, 120 h.

In brackets after ≈: the same amount, converted by molar mass.

What is called MIC is the lowest concentration that inhibits growth of the organism. Regarding `O=C(CCSc1nnc(-c2ccncc2)s1)Nc1ccc(Cl)cc1`, the MIC in experiment [1] turned out to be 0.03 µg/mL (≈ 0.0796 µM); in experiment [2], 0.13 µg/mL (≈ 0.345 µM); in experiment [3] it was 0.06 µg/mL (≈ 0.159 µM); in experiment [4] it was 0.06 µg/mL (≈ 0.159 µM); in [5], 0.25 µg/mL (≈ 0.663 µM); in experiment [6], 0.06 µg/mL (≈ 0.159 µM). The MIC turned out to be 0.06 µg/mL (≈ 0.159 µM) in experiment [7]; 0.03 µg/mL (≈ 0.0796 µM) in [8]; 0.25 µg/mL (≈ 0.663 µM) in [9]; 0.03 µg/mL (≈ 0.0796 µM) in experiment [10]; 0.06 µg/mL (≈ 0.159 µM) in experiment [11].
